Columns and labels:
Test in all cases: radiometric filter-binding kinase assay
MAPK8 (human) = MAPK8 (human) (UniProt P45983)
DAPK1 (human) = DAPK1 (human) (UniProt P53355)
MAPKAPK3 (human) = MAPKAPK3 (human) (UniProt Q16644)
IKBKE (human) = IKBKE (human) (UniProt Q14164)
IKBKB (human) = IKBKB (human) (UniProt O14920)
EPHB3 (human) = EPHB3 (human) (UniProt P54753)
PIM3 (human) = PIM3 (human) (UniProt Q86V86)
MAP2K6 (human) = MAP2K6 (human) (UniProt P52564)
MAP3K11 (human) = MAP3K11 (human) (UniProt Q16584)
MAPK3 (human) = MAPK3 (human) (UniProt P27361)
STK3 (human) = STK3 (human) (UniProt Q13188)
STK3 (human), sequence (Q13188 whole entry, looked up): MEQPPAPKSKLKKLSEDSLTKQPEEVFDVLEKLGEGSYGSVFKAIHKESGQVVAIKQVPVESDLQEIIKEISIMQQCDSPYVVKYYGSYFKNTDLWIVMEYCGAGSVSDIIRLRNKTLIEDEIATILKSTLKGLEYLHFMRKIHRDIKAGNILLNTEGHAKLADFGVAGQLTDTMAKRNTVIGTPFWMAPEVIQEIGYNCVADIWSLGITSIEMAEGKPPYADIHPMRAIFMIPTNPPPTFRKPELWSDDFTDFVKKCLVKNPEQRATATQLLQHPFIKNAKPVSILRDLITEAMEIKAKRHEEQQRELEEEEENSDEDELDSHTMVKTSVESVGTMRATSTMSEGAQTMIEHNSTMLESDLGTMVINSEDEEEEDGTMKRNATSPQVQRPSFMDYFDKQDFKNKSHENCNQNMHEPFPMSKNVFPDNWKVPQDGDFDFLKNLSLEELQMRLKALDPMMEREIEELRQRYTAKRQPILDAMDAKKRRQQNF

[1] = system: AKT1 (human), P31749 [S473D]
DYRK1A (human) = DYRK1A (human) (UniProt Q13627)
MAPK12 (human) = MAPK12 (human) (UniProt P53778)
TBK1 (human) = TBK1 (human) (UniProt Q9UHD2)
IRAK4 (human) = IRAK4 (human) (UniProt Q9NWZ3)
IRAK4 (human), sequence (Q9NWZ3 whole entry, looked up): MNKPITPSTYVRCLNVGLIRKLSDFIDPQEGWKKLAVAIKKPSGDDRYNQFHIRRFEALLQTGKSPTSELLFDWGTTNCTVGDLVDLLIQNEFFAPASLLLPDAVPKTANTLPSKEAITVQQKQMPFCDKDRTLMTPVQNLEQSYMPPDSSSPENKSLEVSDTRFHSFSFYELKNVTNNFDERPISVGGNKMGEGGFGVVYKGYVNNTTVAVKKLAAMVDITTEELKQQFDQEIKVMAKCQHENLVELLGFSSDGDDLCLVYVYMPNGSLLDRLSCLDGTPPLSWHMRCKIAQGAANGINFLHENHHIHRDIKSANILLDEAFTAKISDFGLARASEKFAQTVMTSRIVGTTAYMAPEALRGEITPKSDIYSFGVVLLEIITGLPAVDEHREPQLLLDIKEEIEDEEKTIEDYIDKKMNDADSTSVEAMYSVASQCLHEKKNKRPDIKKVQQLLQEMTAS

MAP3K7 TAB1 (human) = MAP3K7 TAB1 (human) (UniProt Q15750+O43318)
DYRK3 (human) = DYRK3 (human) (UniProt O43781)
MAPK11 (human) = MAPK11 (human) (UniProt Q15759)
PAK4 (human) = PAK4 (human) (UniProt O96013)
RPS6KA3 KD1 KD2 (human) = RPS6KA3 KD1 KD2 (human) (UniProt P51812)
MAPK14 (human) = MAPK14 (human) (UniProt Q16539)
NTRK1 (human) = NTRK1 (human) (UniProt P04629)
PLK1 (human) = PLK1 (human) (UniProt P53350)
PLK1 (human), sequence (P53350 whole entry, looked up): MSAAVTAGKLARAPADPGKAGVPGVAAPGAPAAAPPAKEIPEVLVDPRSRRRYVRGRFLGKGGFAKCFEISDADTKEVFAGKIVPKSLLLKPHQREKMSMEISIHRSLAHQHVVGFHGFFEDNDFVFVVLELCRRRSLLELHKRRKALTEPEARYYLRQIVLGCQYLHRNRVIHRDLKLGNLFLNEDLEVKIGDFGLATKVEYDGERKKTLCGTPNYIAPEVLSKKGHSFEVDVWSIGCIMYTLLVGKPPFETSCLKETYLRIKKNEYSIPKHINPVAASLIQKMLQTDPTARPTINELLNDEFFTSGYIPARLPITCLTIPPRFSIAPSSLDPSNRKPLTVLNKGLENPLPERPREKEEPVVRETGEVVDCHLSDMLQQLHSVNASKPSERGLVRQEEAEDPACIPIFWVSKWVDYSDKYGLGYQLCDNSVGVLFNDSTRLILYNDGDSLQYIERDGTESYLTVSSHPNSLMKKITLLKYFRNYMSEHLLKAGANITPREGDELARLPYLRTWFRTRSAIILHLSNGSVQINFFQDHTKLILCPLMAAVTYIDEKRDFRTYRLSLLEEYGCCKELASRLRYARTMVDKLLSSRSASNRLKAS

CSNK2A1 (human) = CSNK2A1 (human) (UniProt P68400)
MKNK2 (human) = MKNK2 (human) (UniProt Q9HBH9)
[2] = system: RPS6KB1 (human), P23443 [T412E]
RPS6KB1 (human), P23443 [T412E], sequence (P23443 whole entry T412E, looked up): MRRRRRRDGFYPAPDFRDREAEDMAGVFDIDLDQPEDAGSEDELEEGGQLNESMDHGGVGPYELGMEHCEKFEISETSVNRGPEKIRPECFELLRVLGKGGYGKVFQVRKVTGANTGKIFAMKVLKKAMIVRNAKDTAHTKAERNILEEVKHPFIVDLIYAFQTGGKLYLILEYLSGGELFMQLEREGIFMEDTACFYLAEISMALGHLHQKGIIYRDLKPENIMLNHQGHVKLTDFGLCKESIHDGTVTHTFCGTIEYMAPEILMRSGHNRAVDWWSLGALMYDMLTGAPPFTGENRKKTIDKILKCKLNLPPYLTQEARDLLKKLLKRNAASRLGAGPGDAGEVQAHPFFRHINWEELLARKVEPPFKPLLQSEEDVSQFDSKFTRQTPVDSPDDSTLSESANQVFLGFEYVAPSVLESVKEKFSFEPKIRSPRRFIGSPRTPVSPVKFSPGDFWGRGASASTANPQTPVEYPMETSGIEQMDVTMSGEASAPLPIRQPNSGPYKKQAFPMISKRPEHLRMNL

ROCK2 (rat) = settings: accession and sequence are those of the human protein
[3] = system: SGK1 (human), O00141 [S422D]; settings: compound 10.0 µM
MAPKAPK5 (human) = MAPKAPK5 (human) (UniProt Q8IW41)
BRSK2 (human) = BRSK2 (human) (UniProt Q8IWQ3)
BRSK2 (human), sequence (Q8IWQ3 whole entry, looked up): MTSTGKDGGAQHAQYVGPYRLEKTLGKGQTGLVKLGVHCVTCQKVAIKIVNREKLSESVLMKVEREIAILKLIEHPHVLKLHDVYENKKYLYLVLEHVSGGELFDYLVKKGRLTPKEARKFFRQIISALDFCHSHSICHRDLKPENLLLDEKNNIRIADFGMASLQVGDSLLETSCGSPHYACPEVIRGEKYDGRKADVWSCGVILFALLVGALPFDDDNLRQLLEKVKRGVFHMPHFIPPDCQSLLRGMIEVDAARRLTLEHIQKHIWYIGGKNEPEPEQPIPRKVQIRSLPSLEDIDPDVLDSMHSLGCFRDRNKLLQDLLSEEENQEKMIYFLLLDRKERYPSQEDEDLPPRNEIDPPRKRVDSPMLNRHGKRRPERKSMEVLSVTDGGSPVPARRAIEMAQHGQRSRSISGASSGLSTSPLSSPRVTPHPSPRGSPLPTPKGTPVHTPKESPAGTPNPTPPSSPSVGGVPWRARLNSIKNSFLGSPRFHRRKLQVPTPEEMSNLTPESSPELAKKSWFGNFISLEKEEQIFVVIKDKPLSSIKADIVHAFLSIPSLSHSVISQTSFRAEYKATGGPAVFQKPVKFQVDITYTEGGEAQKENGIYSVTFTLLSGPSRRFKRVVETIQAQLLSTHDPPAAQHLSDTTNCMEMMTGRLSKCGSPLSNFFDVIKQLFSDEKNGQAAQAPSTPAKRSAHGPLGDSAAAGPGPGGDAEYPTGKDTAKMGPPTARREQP

PIM1 (human) = PIM1 (human) (UniProt P11309)
PIM2 (human) = PIM2 (human) (UniProt Q9P1W9)
PIM2 (human), sequence (Q9P1W9 whole entry, looked up): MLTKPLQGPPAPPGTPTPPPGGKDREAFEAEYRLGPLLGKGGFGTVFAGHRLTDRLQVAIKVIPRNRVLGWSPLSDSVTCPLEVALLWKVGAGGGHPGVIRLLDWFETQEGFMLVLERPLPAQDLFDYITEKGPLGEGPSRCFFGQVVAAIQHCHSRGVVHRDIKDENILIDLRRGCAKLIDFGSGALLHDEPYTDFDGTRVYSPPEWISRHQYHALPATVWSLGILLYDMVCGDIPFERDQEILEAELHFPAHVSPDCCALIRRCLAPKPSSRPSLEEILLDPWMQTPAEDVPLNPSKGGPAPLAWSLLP

RPS6KA1 KD1 KD2 (human) = RPS6KA1 KD1 KD2 (human) (UniProt Q15418)
CLK2 (human) = CLK2 (human) (UniProt P49760)

IKBKB (human), sequence (O14920 whole entry, looked up): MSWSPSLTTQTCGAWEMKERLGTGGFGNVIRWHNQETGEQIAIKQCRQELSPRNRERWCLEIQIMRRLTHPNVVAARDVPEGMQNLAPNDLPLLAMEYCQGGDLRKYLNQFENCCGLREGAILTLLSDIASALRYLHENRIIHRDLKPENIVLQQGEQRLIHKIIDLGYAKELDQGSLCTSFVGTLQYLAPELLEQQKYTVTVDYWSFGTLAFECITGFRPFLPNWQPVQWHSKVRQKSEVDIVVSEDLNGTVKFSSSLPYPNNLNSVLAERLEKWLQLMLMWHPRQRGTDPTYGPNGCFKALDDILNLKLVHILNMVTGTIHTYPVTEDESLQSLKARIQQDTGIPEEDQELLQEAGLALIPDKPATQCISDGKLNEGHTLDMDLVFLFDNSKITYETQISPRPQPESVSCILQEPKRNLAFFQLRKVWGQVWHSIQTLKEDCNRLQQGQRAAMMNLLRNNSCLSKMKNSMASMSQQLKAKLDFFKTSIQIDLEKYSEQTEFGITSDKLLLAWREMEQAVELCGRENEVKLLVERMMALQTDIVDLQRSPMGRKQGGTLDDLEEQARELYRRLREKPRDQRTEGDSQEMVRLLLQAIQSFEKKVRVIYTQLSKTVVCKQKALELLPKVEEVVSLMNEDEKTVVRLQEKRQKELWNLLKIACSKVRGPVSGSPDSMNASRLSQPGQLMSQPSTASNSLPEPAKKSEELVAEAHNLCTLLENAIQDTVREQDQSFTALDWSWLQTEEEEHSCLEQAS
MAPK8 (human), sequence (P45983 whole entry, looked up): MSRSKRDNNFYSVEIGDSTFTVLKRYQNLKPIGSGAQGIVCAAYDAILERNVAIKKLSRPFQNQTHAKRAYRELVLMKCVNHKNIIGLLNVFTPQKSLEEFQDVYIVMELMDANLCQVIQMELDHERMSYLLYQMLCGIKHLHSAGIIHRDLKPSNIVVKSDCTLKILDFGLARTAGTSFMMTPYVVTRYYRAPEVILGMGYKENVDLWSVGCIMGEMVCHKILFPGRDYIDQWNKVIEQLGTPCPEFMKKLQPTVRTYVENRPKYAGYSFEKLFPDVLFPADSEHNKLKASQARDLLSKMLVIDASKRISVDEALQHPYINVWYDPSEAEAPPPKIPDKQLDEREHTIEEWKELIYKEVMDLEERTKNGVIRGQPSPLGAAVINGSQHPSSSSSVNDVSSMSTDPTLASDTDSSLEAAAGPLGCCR
IKBKE (human), sequence (Q14164 whole entry, looked up): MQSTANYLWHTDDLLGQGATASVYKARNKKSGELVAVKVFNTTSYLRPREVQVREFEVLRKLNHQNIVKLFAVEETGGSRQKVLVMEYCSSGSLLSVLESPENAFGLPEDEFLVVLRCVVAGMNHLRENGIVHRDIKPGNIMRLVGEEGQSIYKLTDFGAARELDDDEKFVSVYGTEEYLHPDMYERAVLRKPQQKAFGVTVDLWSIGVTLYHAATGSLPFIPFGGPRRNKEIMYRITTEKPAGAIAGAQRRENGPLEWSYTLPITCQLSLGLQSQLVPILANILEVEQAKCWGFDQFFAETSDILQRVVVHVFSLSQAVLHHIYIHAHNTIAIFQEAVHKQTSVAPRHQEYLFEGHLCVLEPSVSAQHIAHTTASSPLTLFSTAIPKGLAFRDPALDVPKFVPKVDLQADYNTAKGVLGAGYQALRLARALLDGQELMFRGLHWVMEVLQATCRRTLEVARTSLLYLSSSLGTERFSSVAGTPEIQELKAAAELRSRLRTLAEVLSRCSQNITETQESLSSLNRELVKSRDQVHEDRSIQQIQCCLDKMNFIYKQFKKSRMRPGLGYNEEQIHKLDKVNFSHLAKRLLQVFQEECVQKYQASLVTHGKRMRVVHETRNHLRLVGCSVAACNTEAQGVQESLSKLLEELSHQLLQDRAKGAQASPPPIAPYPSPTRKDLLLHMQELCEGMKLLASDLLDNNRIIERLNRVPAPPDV

## NC(=O)c1cc(-c2ccnc(NC3CCCCC3)c2)nc(N2CCNCC2)c1
MAPK8 (human); compound 0.1 µM
  residual activity: 109%
MAPK8 (human); compound 1.0 µM
  residual activity: 100%
MAPK8 (human); compound 10.0 µM
  residual activity: 38%
DAPK1 (human); compound 0.1 µM
  residual activity: 102%
DAPK1 (human); compound 1.0 µM
  residual activity: 93%
DAPK1 (human); compound 10.0 µM
  residual activity: 40%
MAPKAPK3 (human); compound 0.1 µM
  residual activity: 92%
MAPKAPK3 (human); compound 1.0 µM
  residual activity: 100%
MAPKAPK3 (human); compound 10.0 µM
  residual activity: 92%
IKBKE (human); compound 0.1 µM
  residual activity: 98%
IKBKE (human); compound 1.0 µM
  residual activity: 87%
IKBKE (human); compound 10.0 µM
  residual activity: 48%
IKBKB (human); compound 0.1 µM
  residual activity: 85%
IKBKB (human); compound 1.0 µM
  residual activity: 50%
IKBKB (human); compound 10.0 µM
  residual activity: 23%
EPHB3 (human); compound 0.1 µM
  residual activity: 105%
EPHB3 (human); compound 1.0 µM
  residual activity: 124%
EPHB3 (human); compound 10.0 µM
  residual activity: 94%
PIM3 (human); compound 0.1 µM
  residual activity: 97%
PIM3 (human); compound 1.0 µM
  residual activity: 58%
PIM3 (human); compound 10.0 µM
  residual activity: 42%
MAP2K6 (human); compound 0.1 µM
  residual activity: 92%
MAP2K6 (human); compound 1.0 µM
  residual activity: 29%
MAP2K6 (human); compound 10.0 µM
  residual activity: 16%
MAP3K11 (human); compound 0.1 µM
  residual activity: 93%
MAP3K11 (human); compound 1.0 µM
  residual activity: 86%
MAP3K11 (human); compound 10.0 µM
  residual activity: 81%
MAPK3 (human); compound 0.1 µM
  residual activity: 78%
MAPK3 (human); compound 1.0 µM
  residual activity: 34%
MAPK3 (human); compound 10.0 µM
  residual activity: 10%
STK3 (human); compound 0.1 µM
  residual activity: 103%
STK3 (human); compound 1.0 µM
  residual activity: 110%
STK3 (human); compound 10.0 µM
  residual activity: 98%
[1]; compound 0.1 µM
  residual activity: 109%
[1]; compound 1.0 µM
  residual activity: 106%
[1]; compound 10.0 µM
  residual activity: 94%
DYRK1A (human); compound 0.1 µM
  residual activity: 97%
DYRK1A (human); compound 1.0 µM
  residual activity: 63%
DYRK1A (human); compound 10.0 µM
  residual activity: 21%
MAPK12 (human); compound 0.1 µM
  residual activity: 95%
MAPK12 (human); compound 1.0 µM
  residual activity: 96%
MAPK12 (human); compound 10.0 µM
  residual activity: 58%
TBK1 (human); compound 1.0 µM
  residual activity: 88%
TBK1 (human); compound 10.0 µM
  residual activity: 30%
IRAK4 (human); compound 0.1 µM
  residual activity: 96%
IRAK4 (human); compound 1.0 µM
  residual activity: 127%
IRAK4 (human); compound 10.0 µM
  residual activity: 92%
MAP3K7 TAB1 (human); compound 0.1 µM
  residual activity: 94%
MAP3K7 TAB1 (human); compound 1.0 µM
  residual activity: 100%
MAP3K7 TAB1 (human); compound 10.0 µM
  residual activity: 55%
DYRK3 (human); compound 0.1 µM
  residual activity: 39%
DYRK3 (human); compound 1.0 µM
  residual activity: 14%
DYRK3 (human); compound 10.0 µM
  residual activity: 7%
MAPK11 (human); compound 0.1 µM
  residual activity: 99%
MAPK11 (human); compound 1.0 µM
  residual activity: 96%
MAPK11 (human); compound 10.0 µM
  residual activity: 62%
PAK4 (human); compound 0.1 µM
  residual activity: 101%
PAK4 (human); compound 1.0 µM
  residual activity: 93%
PAK4 (human); compound 10.0 µM
  residual activity: 74%
RPS6KA3 KD1 KD2 (human); compound 0.1 µM
  residual activity: 98%
RPS6KA3 KD1 KD2 (human); compound 10.0 µM
  residual activity: 81%
MAPK14 (human); compound 0.1 µM
  residual activity: 104%
MAPK14 (human); compound 1.0 µM
  residual activity: 116%
MAPK14 (human); compound 10.0 µM
  residual activity: 103%
NTRK1 (human); compound 0.1 µM
  residual activity: 72%
NTRK1 (human); compound 10.0 µM
  residual activity: 71%
PLK1 (human); compound 0.1 µM
  residual activity: 101%
PLK1 (human); compound 1.0 µM
  residual activity: 117%
PLK1 (human); compound 10.0 µM
  residual activity: 111%
CSNK2A1 (human); compound 0.1 µM
  residual activity: 107%
CSNK2A1 (human); compound 1.0 µM
  residual activity: 110%
CSNK2A1 (human); compound 10.0 µM
  residual activity: 65%
MKNK2 (human); compound 0.1 µM
  residual activity: 76%
MKNK2 (human); compound 1.0 µM
  residual activity: 31%
MKNK2 (human); compound 10.0 µM
  residual activity: 6%
[2]; compound 0.1 µM
  residual activity: 92%
[2]; compound 1.0 µM
  residual activity: 96%
[2]; compound 10.0 µM
  residual activity: 94%
ROCK2 (rat); compound 0.1 µM
  residual activity: 99%
ROCK2 (rat); compound 10.0 µM
  residual activity: 51%
[3]
  residual activity: 90%
MAPKAPK5 (human); compound 0.1 µM
  residual activity: 109%
MAPKAPK5 (human); compound 1.0 µM
  residual activity: 97%
MAPKAPK5 (human); compound 10.0 µM
  residual activity: 65%
BRSK2 (human); compound 0.1 µM
  residual activity: 67%
BRSK2 (human); compound 1.0 µM
  residual activity: 26%
BRSK2 (human); compound 10.0 µM
  residual activity: 8%
PIM1 (human); compound 0.1 µM
  residual activity: 114%
PIM1 (human); compound 1.0 µM
  residual activity: 98%
PIM1 (human); compound 10.0 µM
  residual activity: 65%
PIM2 (human); compound 0.1 µM
  residual activity: 99%
PIM2 (human); compound 1.0 µM
  residual activity: 102%
PIM2 (human); compound 10.0 µM
  residual activity: 99%
RPS6KA1 KD1 KD2 (human); compound 0.1 µM
  residual activity: 88%
RPS6KA1 KD1 KD2 (human); compound 1.0 µM
  residual activity: 53%
RPS6KA1 KD1 KD2 (human); compound 10.0 µM
  residual activity: 2%
CLK2 (human); compound 0.1 µM
  residual activity: 78%
CLK2 (human); compound 10.0 µM
  residual activity: 51%

From the kinase profiling compilation of Christmann-Franck et al. (2016)
